Laboratory results from publication doi:10.1101/2025.01.28.635346v1 (bioRxiv, 2025).
Bridge positions count the residues as written; N and C are the ends. Peptide text beside a SMILES is read from it.

What was measured:
integrin αvβ8 = integrin αvβ8 (Homo sapiens, UniProt P06756+P26012); assay: ELISA competition assay, integrin αvβ8 binding to LAP
[1] = test system: αvβ6/8 vs other RGD-integrins; assay: Selectivity and potency gain for αvβ6/8, worked out from integrin IC50 values; format: binding, human; conditions: for improvement in potency (IC50) for αvβ6/8 relative to parent lassotide: 24 and 30 vs 14, 35 vs 28, 36 vs 30, 47 vs 36
integrin αvβ6 [2] = target: T1, integrin αvβ6 (Homo sapiens, UniProt P06756+P18564); assay: ELISA competition assay, integrin αvβ6 binding to LAP
integrin αvβ3 = integrin αvβ3 (Homo sapiens, UniProt P05106+P06756); assay: ELISA competition assay, integrin αvβ3; format: binding
Mouse αvβ6 = target: T2, Mouse αvβ6 (Mus musculus, UniProt P43406+Q9Z0T9); assay: ELISA competition assay, mouse integrin αvβ6; format: binding
T2 sequence (P43406 31-988 limits assumed): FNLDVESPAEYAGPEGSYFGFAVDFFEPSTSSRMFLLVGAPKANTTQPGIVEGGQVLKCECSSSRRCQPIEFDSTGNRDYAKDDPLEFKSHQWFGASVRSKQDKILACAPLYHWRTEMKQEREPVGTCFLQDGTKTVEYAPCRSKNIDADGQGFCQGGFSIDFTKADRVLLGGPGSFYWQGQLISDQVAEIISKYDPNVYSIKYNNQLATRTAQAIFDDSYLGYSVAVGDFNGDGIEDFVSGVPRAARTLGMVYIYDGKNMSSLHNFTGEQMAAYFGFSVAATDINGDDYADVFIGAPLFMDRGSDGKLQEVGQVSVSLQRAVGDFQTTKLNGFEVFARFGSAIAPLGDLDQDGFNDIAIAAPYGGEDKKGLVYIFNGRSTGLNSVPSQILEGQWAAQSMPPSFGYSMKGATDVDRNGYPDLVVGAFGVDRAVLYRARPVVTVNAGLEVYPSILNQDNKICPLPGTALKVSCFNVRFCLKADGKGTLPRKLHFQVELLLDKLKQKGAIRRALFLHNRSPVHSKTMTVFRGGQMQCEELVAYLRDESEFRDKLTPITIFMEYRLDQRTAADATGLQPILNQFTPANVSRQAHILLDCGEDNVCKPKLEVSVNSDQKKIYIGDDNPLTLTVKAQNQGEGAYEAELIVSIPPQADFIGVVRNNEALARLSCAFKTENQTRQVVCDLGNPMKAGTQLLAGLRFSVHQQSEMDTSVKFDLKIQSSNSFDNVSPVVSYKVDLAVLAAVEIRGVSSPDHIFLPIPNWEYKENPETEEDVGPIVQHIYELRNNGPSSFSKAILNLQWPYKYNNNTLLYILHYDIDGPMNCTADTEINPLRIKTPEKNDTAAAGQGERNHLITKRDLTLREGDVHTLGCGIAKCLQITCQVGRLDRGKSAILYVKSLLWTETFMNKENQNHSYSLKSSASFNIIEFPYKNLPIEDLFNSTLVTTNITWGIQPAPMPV
T2 sequence (Q9Z0T9 22-707 limits assumed): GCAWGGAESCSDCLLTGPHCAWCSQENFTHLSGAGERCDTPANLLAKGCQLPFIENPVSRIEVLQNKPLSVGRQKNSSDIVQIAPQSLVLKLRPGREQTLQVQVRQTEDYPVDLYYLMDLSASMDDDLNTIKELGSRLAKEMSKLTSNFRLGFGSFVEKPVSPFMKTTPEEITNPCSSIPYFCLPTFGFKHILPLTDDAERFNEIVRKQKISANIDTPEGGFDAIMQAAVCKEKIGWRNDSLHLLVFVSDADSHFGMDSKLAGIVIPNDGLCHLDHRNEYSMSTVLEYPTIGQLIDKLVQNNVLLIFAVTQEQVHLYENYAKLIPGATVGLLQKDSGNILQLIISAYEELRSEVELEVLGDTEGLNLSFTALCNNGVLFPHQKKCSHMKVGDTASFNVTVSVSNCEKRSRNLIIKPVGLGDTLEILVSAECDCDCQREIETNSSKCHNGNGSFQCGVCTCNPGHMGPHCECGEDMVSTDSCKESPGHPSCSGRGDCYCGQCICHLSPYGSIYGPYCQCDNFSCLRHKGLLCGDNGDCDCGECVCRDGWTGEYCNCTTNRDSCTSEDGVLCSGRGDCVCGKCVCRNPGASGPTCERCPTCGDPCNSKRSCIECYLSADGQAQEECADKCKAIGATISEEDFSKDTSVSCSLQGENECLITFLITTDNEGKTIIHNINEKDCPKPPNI

integrin αvβ6 [3] = target: T1, integrin αvβ6; assay: AlphaLISA competition assay vs LAP, biotinylated αvβ6; format: binding
integrin αIIbβ3 = target: T3, integrin αIIbβ3 (Homo sapiens, UniProt P05106+P08514); assay: ELISA competition assay, integrin αIIbβ3; format: binding
T3 sequence (P08514 32-993 limits assumed): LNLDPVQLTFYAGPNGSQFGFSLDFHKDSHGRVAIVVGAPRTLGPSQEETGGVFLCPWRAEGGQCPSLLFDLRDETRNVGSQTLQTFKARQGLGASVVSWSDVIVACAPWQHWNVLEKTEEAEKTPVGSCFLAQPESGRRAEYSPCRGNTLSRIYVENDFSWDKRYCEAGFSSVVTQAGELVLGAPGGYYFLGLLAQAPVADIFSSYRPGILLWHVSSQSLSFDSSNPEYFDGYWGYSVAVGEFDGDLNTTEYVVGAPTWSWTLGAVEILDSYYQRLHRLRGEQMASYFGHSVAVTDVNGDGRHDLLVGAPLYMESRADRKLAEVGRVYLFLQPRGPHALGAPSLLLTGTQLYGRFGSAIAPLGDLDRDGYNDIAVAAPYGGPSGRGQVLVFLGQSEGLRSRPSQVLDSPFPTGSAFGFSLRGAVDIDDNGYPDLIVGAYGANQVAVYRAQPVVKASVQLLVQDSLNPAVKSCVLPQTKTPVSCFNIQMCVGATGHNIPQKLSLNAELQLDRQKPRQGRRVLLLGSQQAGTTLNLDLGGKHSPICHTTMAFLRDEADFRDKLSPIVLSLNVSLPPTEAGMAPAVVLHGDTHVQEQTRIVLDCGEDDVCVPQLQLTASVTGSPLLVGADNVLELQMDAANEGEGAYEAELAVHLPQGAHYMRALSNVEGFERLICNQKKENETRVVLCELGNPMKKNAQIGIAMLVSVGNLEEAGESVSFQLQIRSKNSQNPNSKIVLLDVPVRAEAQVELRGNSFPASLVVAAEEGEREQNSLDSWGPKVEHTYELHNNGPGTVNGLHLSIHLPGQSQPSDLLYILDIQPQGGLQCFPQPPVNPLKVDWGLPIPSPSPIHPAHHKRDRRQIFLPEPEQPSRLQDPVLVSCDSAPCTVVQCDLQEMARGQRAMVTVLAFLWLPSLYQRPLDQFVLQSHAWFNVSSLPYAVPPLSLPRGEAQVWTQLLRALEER
T3 sequence (P05106 27-718 limits assumed): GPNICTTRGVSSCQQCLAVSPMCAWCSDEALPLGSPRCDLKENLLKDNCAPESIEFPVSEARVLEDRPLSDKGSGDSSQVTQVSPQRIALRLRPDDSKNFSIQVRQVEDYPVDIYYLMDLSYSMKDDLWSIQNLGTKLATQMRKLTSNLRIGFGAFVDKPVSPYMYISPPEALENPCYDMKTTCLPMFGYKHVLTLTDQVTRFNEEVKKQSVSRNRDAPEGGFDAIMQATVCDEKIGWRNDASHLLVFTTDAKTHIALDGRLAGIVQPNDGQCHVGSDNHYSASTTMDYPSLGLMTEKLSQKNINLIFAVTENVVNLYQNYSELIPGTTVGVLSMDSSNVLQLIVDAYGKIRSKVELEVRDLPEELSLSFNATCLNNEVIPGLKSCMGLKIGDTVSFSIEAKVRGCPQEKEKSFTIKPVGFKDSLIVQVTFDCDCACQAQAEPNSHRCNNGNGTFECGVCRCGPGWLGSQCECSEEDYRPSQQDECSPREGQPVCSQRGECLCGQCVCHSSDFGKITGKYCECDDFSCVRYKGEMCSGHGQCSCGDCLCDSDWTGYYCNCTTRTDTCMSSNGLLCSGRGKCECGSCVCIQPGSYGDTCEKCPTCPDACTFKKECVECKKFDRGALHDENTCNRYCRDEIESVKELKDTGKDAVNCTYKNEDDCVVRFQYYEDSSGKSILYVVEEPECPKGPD

integrin αvβ5 = integrin αvβ5 (Homo sapiens, UniProt P06756+P18084); assay: ELISA competition assay, integrin αvβ5; format: binding
integrin α5β1 = integrin α5β1 (Homo sapiens, UniProt P05556+P08648); assay: ELISA competition assay, integrin α5β1; format: binding
integrin α8β1 = integrin α8β1 (Homo sapiens, UniProt P05556+P53708); assay: ELISA competition assay, integrin α8β1; format: binding
integrin αvβ1 = integrin αvβ1 (Homo sapiens, UniProt P05556+P06756); assay: ELISA competition assay, integrin αvβ1; format: binding
[4] = αvβ6 IC50, ELISA competition vs LAP, mean, n ≥ 3

Row | IC50 (integrin αvβ6 [2]) [nM] | Compound | IC50 (integrin αvβ8) [nM] | improvement in potency (IC50) for αvβ6/8 relative to parent lassotide [1] | IC50 (integrin αvβ6 [2]; [4]) [nM] | IC50 (integrin αvβ3) [nM] | IC50 (Mouse αvβ6) [nM] | other results
1 |  | CC[C@H](C)[C@H](NC(=O)[C@H](CC(C)C)NC(=O)[C@H](CC(=O)O)NC(=O)CNC(=O)[C@H](CCCNC(=N)N)NC(=O)[C@@H](NC(=O)[C@H](Cc1ccccc1)NC(=O)[C@H](Cc1ccc(O)cc1)NC(=O)[C@@H]1CCC(=O)NCC(=O)NCC(=O)N[C@@H](CCCCN)C(=O)NCC(=O)N[C@@H](Cc2c[nH]cn2)C(=O)N[C@@H](C(C)C)C(=O)N2CCC[C@H]2C(=O)N1)C(C)C)C(=O)N[C@@H](CO)C(=O)N[C@@H](Cc1ccccc1)C(=O)N[C@@H](Cc1ccc(O)cc1)C(=O)N[C@@H](CCCCN)C(=O)O [lassotide 35] (GGKGHVPEYFVRGDLISFYK-OH; lactam N-8; C-terminus assumed) | 36 | up to 2 fold | 25 |  |  | 
2 | 84 | CC[C@H](C)[C@H](NC(=O)[C@H](CC(C)C)NC(=O)[C@H](CC(=O)O)NC(=O)CNC(=O)[C@H](CCCNC(=N)N)NC(=O)[C@@H](NC(=O)[C@H](Cc1ccccc1)NC(=O)[C@H](Cc1ccc(O)cc1)NC(=O)[C@@H]1CCC(=O)NCC(=O)NCC(=O)N[C@@H](C)C(=O)NCC(=O)N[C@@H](Cc2c[nH]cn2)C(=O)N[C@@H](C(C)C)C(=O)N2CCC[C@H]2C(=O)N1)C(C)C)C(=O)N[C@@H](CO)C(=O)N[C@@H](Cc1ccccc1)C(=O)N[C@@H](Cc1ccc(O)cc1)C(=O)NCC(=O)O [lassotide 14] (GGAGHVPEYFVRGDLISFYG-OH; lactam N-8; C-terminus assumed) | 116 |  |  | 238 |  | selectivity favoring αvβ6/8 over αvβ3 ([1]; from IC50 values): 2-3 fold
3 | 6 | CC(C)C[C@H](NC(=O)[C@H](CC(=O)O)NC(=O)CNC(=O)[C@H](CCCNC(=N)N)NC(=O)[C@@H](NC(=O)[C@H](Cc1ccccc1)NC(=O)[C@H](Cc1ccc(O)cc1)NC(=O)[C@@H]1CCC(=O)NCC(=O)NCC(=O)N[C@@H](C)C(=O)NCC(=O)N[C@@H](Cc2c[nH]cn2)C(=O)N[C@@H](C(C)C)C(=O)N2CCC[C@H]2C(=O)N1)C(C)C)C(=O)N[C@@H](CCC(N)=O)C(=O)N[C@@H](CO)C(=O)N[C@@H](Cc1ccccc1)C(=O)N[C@@H](Cc1ccc(O)cc1)C(=O)NCC(=O)O [lassotide 24] (GGAGHVPEYFVRGDLQSFYG-OH; lactam N-8; C-terminus assumed) |  | up to 7 fold |  |  | 7 | IC50 (integrin αvβ6 [3]): 13 nM
4 |  | CC[C@H](C)[C@H](NC(=O)[C@H](CC(C)C)NC(=O)[C@H](CC(=O)O)NC(=O)CNC(=O)[C@H](CCCNC(=N)N)NC(=O)[C@@H](NC(=O)[C@H](Cc1ccccc1)NC(=O)[C@H](Cc1ccc(O)cc1)NC(=O)[C@@H]1CCC(=O)NCC(=O)NCC(=O)N[C@@H](CCCNC(=N)N)C(=O)NCC(=O)N[C@@H](Cc2c[nH]cn2)C(=O)N[C@@H](C(C)C)C(=O)N2CCC[C@H]2C(=O)N1)C(C)C)C(=O)N[C@@H](CO)C(=O)N[C@@H](Cc1ccccc1)C(=O)N[C@@H](Cc1ccc(O)cc1)C(=O)NCC(=O)O [lassotide 30] (GGRGHVPEYFVRGDLISFYG-OH; lactam N-8; C-terminus assumed) | 27 | 3-4 fold | 30 |  | 24 | IC50 (integrin αvβ6 [2]; Human αvß6 IC50, ELISA run in triplicate, mean, Table S1): 17 nM
5 |  | CC(C)C[C@H](NC(=O)[C@H](CC(=O)O)NC(=O)CNC(=O)[C@H](CCCNC(=N)N)NC(=O)[C@@H](NC(=O)[C@H](Cc1ccccc1)NC(=O)[C@H](Cc1ccc(O)cc1)NC(=O)[C@@H]1CCC(=O)NCC(=O)NCC(=O)N[C@@H](CCCNC(=N)N)C(=O)NCC(=O)N[C@@H](Cc2c[nH]cn2)C(=O)N[C@@H](C(C)C)C(=O)N2CCC[C@H]2C(=O)N1)C(C)C)C(=O)N[C@@H](CCC(N)=O)C(=O)N[C@@H](CO)C(=O)N[C@@H](Cc1ccccc1)C(=O)N[C@@H](Cc1ccc(O)cc1)C(=O)NCC(=O)O [lassotide 38] (GGRGHVPEYFVRGDLQSFYG-OH; lactam N-8) |  |  | 3 | 185 | 4 | IC50 (integrin αIIbβ3): 126 nM; IC50 (integrin αvβ5): > 10000 nM; IC50 (integrin α5β1): 397 nM; IC50 (integrin α8β1): 1290 nM; IC50 (integrin αvβ1): 13 nM
